Reference: ChEMBL document CHEMBL4251615, “Discovery of anilino-furo[2,3-d]pyrimidine derivatives as dual inhibitors of EGFR/HER2 tyrosine kinase and their anticancer activity” (Eur J Med Chem, 2018)

Experiments:
[1] = molecular target: Receptor tyrosine-protein kinase erbB-2 (Homo sapiens) (UniProt P04626); experiment: Inhibition of recombinant human N-terminal GST-tagged HER2 (679 to 1255 residues) expressed in baculovirus infected Sf9 cells at 10 uM using poly[Glu:Tyr] (4:1) as substrate after 40 mins by Kinase-Glo plus luminescence assay relative to control
Receptor tyrosine-protein kinase erbB-2 (Homo sapiens), sequence (P04626 whole entry, the tested form may be a part): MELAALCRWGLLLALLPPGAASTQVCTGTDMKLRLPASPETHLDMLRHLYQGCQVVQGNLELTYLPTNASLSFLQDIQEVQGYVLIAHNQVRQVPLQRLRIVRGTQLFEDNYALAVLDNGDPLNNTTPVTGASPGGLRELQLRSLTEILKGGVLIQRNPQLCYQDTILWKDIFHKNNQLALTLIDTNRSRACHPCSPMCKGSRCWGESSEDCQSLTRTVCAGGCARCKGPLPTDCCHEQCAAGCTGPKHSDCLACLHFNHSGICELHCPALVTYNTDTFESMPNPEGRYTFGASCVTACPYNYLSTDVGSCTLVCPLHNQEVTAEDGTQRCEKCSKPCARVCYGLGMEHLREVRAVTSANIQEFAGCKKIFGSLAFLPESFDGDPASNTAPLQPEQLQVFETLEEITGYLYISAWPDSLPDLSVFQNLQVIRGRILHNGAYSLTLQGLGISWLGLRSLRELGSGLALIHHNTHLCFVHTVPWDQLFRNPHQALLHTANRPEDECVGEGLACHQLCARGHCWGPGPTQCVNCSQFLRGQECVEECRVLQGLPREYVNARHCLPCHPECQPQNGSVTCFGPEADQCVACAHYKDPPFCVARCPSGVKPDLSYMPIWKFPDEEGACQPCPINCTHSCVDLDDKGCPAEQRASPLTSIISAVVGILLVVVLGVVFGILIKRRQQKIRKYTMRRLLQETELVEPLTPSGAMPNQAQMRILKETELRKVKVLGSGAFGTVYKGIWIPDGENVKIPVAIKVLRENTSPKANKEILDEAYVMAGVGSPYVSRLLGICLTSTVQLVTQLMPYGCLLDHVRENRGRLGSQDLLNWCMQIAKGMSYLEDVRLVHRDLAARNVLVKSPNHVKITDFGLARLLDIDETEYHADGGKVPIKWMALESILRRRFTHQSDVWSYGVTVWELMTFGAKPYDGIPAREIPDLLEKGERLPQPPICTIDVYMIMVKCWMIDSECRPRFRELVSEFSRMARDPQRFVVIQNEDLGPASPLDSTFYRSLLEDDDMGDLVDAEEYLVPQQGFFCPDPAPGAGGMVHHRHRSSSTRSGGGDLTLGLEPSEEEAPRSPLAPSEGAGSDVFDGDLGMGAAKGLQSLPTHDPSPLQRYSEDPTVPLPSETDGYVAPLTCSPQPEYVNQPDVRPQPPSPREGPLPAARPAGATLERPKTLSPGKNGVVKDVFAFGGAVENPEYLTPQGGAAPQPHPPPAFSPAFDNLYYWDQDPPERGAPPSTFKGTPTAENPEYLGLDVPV

HL-60(TB) = experiment: Growth inhibition of human HL-60(TB) cells assessed as cell growth at 10 uM incubated for 48 hrs by sulforhodamine B assay relative to control; assay type: functional; details: HL-60, 48 h, read-out: Activity
MOLT-4 = experiment: Growth inhibition of human MOLT4 cells assessed as cell growth at 10 uM incubated for 48 hrs by sulforhodamine B assay relative to control; assay type: functional; details: MOLT-4, 48 h, read-out: Activity
SR = experiment: Growth inhibition of human SR cells assessed as cell growth at 10 uM incubated for 48 hrs by sulforhodamine B assay relative to control; assay type: functional; details: read-out: Activity
HOP-92 = experiment: Growth inhibition of human HOP92 cells assessed as cell growth at 10 uM incubated for 48 hrs by sulforhodamine B assay relative to control; assay type: functional; details: HOP-92, 48 h, read-out: Activity
NCI-H322M = experiment: Growth inhibition of human NCI-H322M cells assessed as cell growth at 10 uM incubated for 48 hrs by sulforhodamine B assay relative to control; assay type: functional; details: read-out: Activity
NCI-H522 = experiment: Growth inhibition of human NCI-H522 cells assessed as cell growth at 10 uM incubated for 48 hrs by sulforhodamine B assay relative to control; assay type: functional; details: NCI-H522, 48 h, read-out: Activity
HCT-116 = experiment: Growth inhibition of human HCT116 cells assessed as cell growth at 10 uM incubated for 48 hrs by sulforhodamine B assay relative to control; assay type: functional; details: HCT-116, 48 h, read-out: Activity
HCT-15 = experiment: Growth inhibition of human HCT15 cells assessed as cell growth at 10 uM incubated for 48 hrs by sulforhodamine B assay relative to control; assay type: functional; details: HCT-15, 48 h, read-out: Activity
SW-620 = experiment: Growth inhibition of human SW620 cells assessed as cell growth at 10 uM incubated for 48 hrs by sulforhodamine B assay relative to control; assay type: functional; details: SW-620, 48 h, read-out: Activity
SF-539 = experiment: Growth inhibition of human SF539 cells assessed as cell growth at 10 uM incubated for 48 hrs by sulforhodamine B assay relative to control; assay type: functional; details: SF-539, 48 h, read-out: Activity
SNB-19 = experiment: Growth inhibition of human SNB19 cells assessed as cell growth at 10 uM incubated for 48 hrs by sulforhodamine B assay relative to control; assay type: functional; details: SNB-19, 48 h, read-out: Activity
LOX IMVI = experiment: Growth inhibition of human LOXIMVI cells assessed as cell growth at 10 uM incubated for 48 hrs by sulforhodamine B assay relative to control; assay type: functional; details: read-out: Activity
Malme-3M = experiment: Growth inhibition of human MALME-3M cells assessed as cell growth at 10 uM incubated for 48 hrs by sulforhodamine B assay relative to control; assay type: functional; details: read-out: Activity
M14 = experiment: Growth inhibition of human M14 cells assessed as cell growth at 10 uM incubated for 48 hrs by sulforhodamine B assay relative to control; assay type: functional; details: M14, 48 h, read-out: Activity
MDA-MB-435 = experiment: Growth inhibition of human MDA-MB-435 cells assessed as cell growth at 10 uM incubated for 48 hrs by sulforhodamine B assay relative to control; assay type: functional; details: MDA-MB-435, 48 h, read-out: Activity
SK-MEL-2 = experiment: Growth inhibition of human SK-MEL-2 cells assessed as cell growth at 10 uM incubated for 48 hrs by sulforhodamine B assay relative to control; assay type: functional; details: SK-MEL-2, 48 h, read-out: Activity
UACC-62 = experiment: Growth inhibition of human UACC62 cells assessed as cell growth at 10 uM incubated for 48 hrs by sulforhodamine B assay relative to control; assay type: functional; details: UACC-62, 48 h, read-out: Activity
OVCAR-3 = experiment: Growth inhibition of human OVCAR3 cells assessed as cell growth at 10 uM incubated for 48 hrs by sulforhodamine B assay relative to control; assay type: functional; details: OVCAR-3, 48 h, read-out: Activity
OVCAR-4 = experiment: Growth inhibition of human OVCAR4 cells assessed as cell growth at 10 uM incubated for 48 hrs by sulforhodamine B assay relative to control; assay type: functional; details: OVCAR-4, 48 h, read-out: Activity
OVCAR-8 = experiment: Growth inhibition of human OVCAR8 cells assessed as cell growth at 10 uM incubated for 48 hrs by sulforhodamine B assay relative to control; assay type: functional; details: OVCAR-8, 48 h, read-out: Activity
NCI/ADR-RES = experiment: Growth inhibition of human NCI/ADR-RES cells assessed as cell growth at 10 uM incubated for 48 hrs by sulforhodamine B assay relative to control; assay type: functional; details: read-out: Activity
ACHN = experiment: Growth inhibition of human ACHN cells assessed as cell growth at 10 uM incubated for 48 hrs by sulforhodamine B assay relative to control; assay type: functional; details: read-out: Activity
SN12C = experiment: Growth inhibition of human SN12C cells assessed as cell growth at 10 uM incubated for 48 hrs by sulforhodamine B assay relative to control; assay type: functional; details: read-out: Activity
UO-31 = experiment: Growth inhibition of human UO31 cells assessed as cell growth at 10 uM incubated for 48 hrs by sulforhodamine B assay relative to control; assay type: functional; details: UO-31, 48 h, read-out: Activity
PC-3 = experiment: Growth inhibition of human PC3 cells assessed as cell growth at 10 uM incubated for 48 hrs by sulforhodamine B assay relative to control; assay type: functional; details: PC-3, 48 h, read-out: Activity
T47D = experiment: Growth inhibition of human T47D cells assessed as cell growth at 10 uM incubated for 48 hrs by sulforhodamine B assay relative to control; assay type: functional; details: read-out: Activity
MDA-MB-468 = experiment: Growth inhibition of human MDA-MB-468 cells assessed as cell growth at 10 uM incubated for 48 hrs by sulforhodamine B assay relative to control; assay type: functional; details: MDA-MB-468, 48 h, read-out: Activity

For `CCOC(=O)c1c(C)oc2ncnc(Nc3ccc(OCc4ccc(Cl)c(Cl)c4)cc3)c12`, the inhibition [1] was 13%, the growth at 10 µM (HL-60(TB)) was 96.6% and the growth at 10 µM (MOLT-4) was 105%. For the same compound, the growth at 10 µM (SR) was 90%, the growth at 10 µM (HOP-92) was 116% and the growth at 10 µM (NCI-H322M) was 97.9%. It also gave a growth at 10 µM (NCI-H522) of 91%, a growth at 10 µM (HCT-116) of 94.5% and a growth at 10 µM (HCT-15) of 104%. The growth at 10 µM (SW-620) was 105%, the growth at 10 µM (SF-539) was 98.4% and the growth at 10 µM (SNB-19) was 103%. For the same compound, the growth at 10 µM (LOX IMVI) was 95.1%, the growth at 10 µM (Malme-3M) was 131% and the growth at 10 µM (M14) was 101%. It also gave a growth at 10 µM (MDA-MB-435) of 111%, a growth at 10 µM (SK-MEL-2) of 103% and a growth at 10 µM (UACC-62) of 93.2%. It also gave a growth at 10 µM (OVCAR-3) of 118%, a growth at 10 µM (OVCAR-4) of 121% and a growth at 10 µM (OVCAR-8) of 113%. It also gave a growth at 10 µM (NCI/ADR-RES) of 103%, a growth at 10 µM (ACHN) of 102% and a growth at 10 µM (SN12C) of 93.3%. The growth at 10 µM (UO-31) was 98.4%, the growth at 10 µM (PC-3) was 103% and the growth at 10 µM (T47D) was 90.1%. For the same compound, the growth at 10 µM (MDA-MB-468) was 96.5%.
With `CCOC(=O)c1c(C)oc2ncnc(Nc3ccc(OCc4ccc(Cl)cc4)cc3)c12` the inhibition [1] was 18%, the growth at 10 µM (HL-60(TB)) was 91.7% and the growth at 10 µM (MOLT-4) was 109%. It also gave a growth at 10 µM (SR) of 92.1%, a growth at 10 µM (HOP-92) of 107% and a growth at 10 µM (NCI-H322M) of 107%. The growth at 10 µM (NCI-H522) was 84%, the growth at 10 µM (HCT-116) was 98.7% and the growth at 10 µM (HCT-15) was 108%. The growth at 10 µM (SW-620) was 106%, the growth at 10 µM (SF-539) was 98.2% and the growth at 10 µM (SNB-19) was 111%. The growth at 10 µM (LOX IMVI) was 95.8%, the growth at 10 µM (Malme-3M) was 123% and the growth at 10 µM (M14) was 102%. It also gave a growth at 10 µM (MDA-MB-435) of 104%, a growth at 10 µM (SK-MEL-2) of 105% and a growth at 10 µM (UACC-62) of 87.7%. For the same compound, the growth at 10 µM (OVCAR-3) was 117%, the growth at 10 µM (OVCAR-4) was 104% and the growth at 10 µM (OVCAR-8) was 107%. It also gave a growth at 10 µM (NCI/ADR-RES) of 101%, a growth at 10 µM (ACHN) of 101% and a growth at 10 µM (SN12C) of 97.8%. It also gave a growth at 10 µM (UO-31) of 99.5%, a growth at 10 µM (PC-3) of 100% and a growth at 10 µM (T47D) of 84%. The growth at 10 µM (MDA-MB-468) was 89.8%.
`CCOC(=O)c1c(C)oc2ncnc(Nc3ccc(OCc4cccc(F)c4)cc3)c12` was tested, and the inhibition [1] was 19%, the growth at 10 µM (HL-60(TB)) was 109% and the growth at 10 µM (MOLT-4) was 107%. For the same compound, the growth at 10 µM (SR) was 104%, the growth at 10 µM (HOP-92) was 104% and the growth at 10 µM (NCI-H322M) was 101%. For the same compound, the growth at 10 µM (NCI-H522) was 85%, the growth at 10 µM (HCT-116) was 78.1% and the growth at 10 µM (HCT-15) was 98.5%. The growth at 10 µM (SW-620) was 88.9%, the growth at 10 µM (SF-539) was 94.4% and the growth at 10 µM (SNB-19) was 99.5%. It also gave a growth at 10 µM (LOX IMVI) of 85.3%, a growth at 10 µM (Malme-3M) of 125% and a growth at 10 µM (M14) of 97.5%. The growth at 10 µM (MDA-MB-435) was 103%, the growth at 10 µM (SK-MEL-2) was 102% and the growth at 10 µM (UACC-62) was 80.3%. For the same compound, the growth at 10 µM (OVCAR-3) was 104%, the growth at 10 µM (OVCAR-4) was 102% and the growth at 10 µM (OVCAR-8) was 97.6%. For the same compound, the growth at 10 µM (NCI/ADR-RES) was 86.2%, the growth at 10 µM (ACHN) was 62.1% and the growth at 10 µM (SN12C) was 90.3%. For the same compound, the growth at 10 µM (UO-31) was 85%, the growth at 10 µM (PC-3) was 75% and the growth at 10 µM (T47D) was 91%. For the same compound, the growth at 10 µM (MDA-MB-468) was 90.6%.
`Cc1oc2ncnc(Nc3ccc(OCc4cccc(F)c4)c(Cl)c3)c2c1C(=O)NCCO` was tested, and the inhibition [1] was 6%, the growth at 10 µM (HL-60(TB)) was 42.4% and the growth at 10 µM (MOLT-4) was 68.5%. For the same compound, the growth at 10 µM (SR) was 99.7%, the growth at 10 µM (HOP-92) was 41.9% and the growth at 10 µM (NCI-H322M) was 86.3%. For the same compound, the growth at 10 µM (NCI-H522) was 27.9%, the growth at 10 µM (HCT-116) was 64.9% and the growth at 10 µM (HCT-15) was 61.1%. For the same compound, the growth at 10 µM (SW-620) was 93.4%, the growth at 10 µM (SF-539) was 47.4% and the growth at 10 µM (SNB-19) was 34.3%. The growth at 10 µM (LOX IMVI) was 61.5%, the growth at 10 µM (Malme-3M) was 52.3% and the growth at 10 µM (M14) was 66.9%. It also gave a growth at 10 µM (MDA-MB-435) of 62.6%, a growth at 10 µM (SK-MEL-2) of 78.5% and a growth at 10 µM (UACC-62) of 55%. For the same compound, the growth at 10 µM (OVCAR-3) was 78.1%, the growth at 10 µM (OVCAR-4) was 66.9% and the growth at 10 µM (OVCAR-8) was 42.8%. The growth at 10 µM (NCI/ADR-RES) was 70.8%, the growth at 10 µM (ACHN) was 49.7% and the growth at 10 µM (SN12C) was 45.3%. For the same compound, the growth at 10 µM (UO-31) was 57.6%, the growth at 10 µM (PC-3) was 57.5% and the growth at 10 µM (T47D) was 34.7%. The growth at 10 µM (MDA-MB-468) was 57.4%.
